Results from the NIST ThermoML archive (doi:10.1016/j.jct.2013.08.016).

Legend:
[1] = refractive index (Na D-line) (dimensionless); mn = molality of the nth substance listed, in mol/kg; conditions: 101.3 kPa, Liquid, Standard Abbe refractometry
[2] = mn = molality of the nth substance listed, in mol/kg; conditions: 101.3 kPa, Liquid; for viscosity: Capillary tube (Ostwald / Ubbelohde) method; for mass density: Pycnometric method; for speed of sound: Single path-length method

O=C1O[C@H]([C@@H](O)CO)C([O-])=C1O.[Na+] [sodium L-ascorbate] + O
Conditions | mass density, [2] [kg/m3] | refractive index, [1] | speed of sound, [2] [m/s] | viscosity, [2] [mPa·s]
278.15 K, m1 = 0.0495 | 1005.25 | 1.3359 | 1432.4 | 1.564
278.15 K, m1 = 0.102 | 1010.89 | 1.338 | 1438.9 | 1.61
278.15 K, m1 = 0.1378 | 1014.72 | 1.3388 | 1443.6 | 1.633
278.15 K, m1 = 0.2009 | 1021.3 | 1.3411 | 1451.6 | 1.693
278.15 K, m1 = 0.2329 | 1024.63 | 1.3428 | 1456.6 | 1.727
278.15 K, m1 = 0.2951 | 1030.95 | 1.3448 | 1463.8 | 1.787
278.15 K, m1 = 0.3361 | 1035.04 | 1.3461 | 1469.1 | 1.828
278.15 K, m1 = 0.3968 | 1041.02 | 1.3485 | 1478.2 | 1.891
278.15 K, m1 = 0.4287 | 1044.29 | 1.3498 | 1480 | 1.925
278.15 K, m1 = 0.4929 | 1050.46 | 1.3519 | 1489.1 | 1.995
278.15 K, m1 = 0.5436 | 1055.28 | 1.3536 | 1494.6 | 2.052
278.15 K, m1 = 0.6275 | 1063.15 | 1.3564 | 1503.6 | 2.152
278.15 K, m1 = 0.6583 | 1065.96 | 1.3571 | 1509.1 | 2.192
278.15 K, m1 = 0.7407 | 1073.42 | 1.3602 | 1518.2 | 2.291
288.15 K, m1 = 0.0403 | 1003.38 | 1.3351 | 1470.4 | 1.167
288.15 K, m1 = 0.1263 | 1012.42 | 1.3373 | 1479.2 | 1.209
288.15 K, m1 = 0.1604 | 1015.94 | 1.3392 | 1483.6 | 1.24
288.15 K, m1 = 0.2478 | 1024.69 | 1.3423 | 1494.4 | 1.303
288.15 K, m1 = 0.301 | 1029.91 | 1.3439 | 1499.1 | 1.339
288.15 K, m1 = 0.3509 | 1034.82 | 1.346 | 1505.9 | 1.37
288.15 K, m1 = 0.4457 | 1043.86 | 1.3493 | 1518.2 | 1.45
288.15 K, m1 = 0.5156 | 1050.33 | 1.3502 | 1525.5 | 1.504
288.15 K, m1 = 0.5987 | 1057.95 | 1.3543 | 1532.7 | 1.575
288.15 K, m1 = 0.6446 | 1062.31 | 1.3558 | 1540 | 1.608
288.15 K, m1 = 0.6909 | 1066.4 | 1.3572 | 1545.5 | 1.652
288.15 K, m1 = 0.7466 | 1071.4 | 1.3592 | 1552 | 1.708
298.15 K, m1 = 0.0503 | 1002.31 | 1.3344 | 1501.9 | 0.9169
298.15 K, m1 = 0.1005 | 1007.49 | 1.3362 | 1507.2 | 0.9381
298.15 K, m1 = 0.1492 | 1012.47 | 1.3378 | 1512.6 | 0.9628
298.15 K, m1 = 0.1993 | 1017.5 | 1.3397 | 1518.1 | 0.9898
298.15 K, m1 = 0.2452 | 1022.1 | 1.3414 | 1522.5 | 1.007
298.15 K, m1 = 0.301 | 1027.58 | 1.3434 | 1527.6 | 1.04
298.15 K, m1 = 0.3456 | 1031.8 | 1.3449 | 1533.1 | 1.062
298.15 K, m1 = 0.4112 | 1038.01 | 1.347 | 1539.9 | 1.097
298.15 K, m1 = 0.4397 | 1040.84 | 1.3479 | 1542 | 1.113
298.15 K, m1 = 0.4892 | 1045.65 | 1.3495 | 1547.2 | 1.146
298.15 K, m1 = 0.5491 | 1051.09 | 1.3516 | 1554.4 | 1.183
298.15 K, m1 = 0.6035 | 1056.1 | 1.3534 | 1559.1 | 1.223
298.15 K, m1 = 0.6697 | 1062.08 | 1.3553 | 1565.3 | 1.257
298.15 K, m1 = 0.7314 | 1067.47 | 1.3571 | 1572.6 | 1.301

O=C1O[C@H]([C@@H](O)CO)C(O)=C1O [L-ascorbic acid] + O
Conditions | mass density, [2] [kg/m3] | refractive index, [1] | speed of sound, [2] [m/s] | viscosity, [2] [mPa·s]
278.15 K, m1 = 0.0502 | 1003.69 | 1.3353 | 1429.5 | 1.566
278.15 K, m1 = 0.0997 | 1007.29 | 1.3365 | 1432.8 | 1.606
278.15 K, m1 = 0.1384 | 1010.1 | 1.3378 | 1434.7 | 1.634
278.15 K, m1 = 0.1964 | 1014.25 | 1.3394 | 1438.5 | 1.668
278.15 K, m1 = 0.2338 | 1016.85 | 1.3405 | 1440.5 | 1.699
278.15 K, m1 = 0.2927 | 1020.96 | 1.3419 | 1443.6 | 1.737
278.15 K, m1 = 0.3392 | 1024.27 | 1.3434 | 1445.3 | 1.77
278.15 K, m1 = 0.4069 | 1028.56 | 1.3448 | 1448.9 | 1.813
278.15 K, m1 = 0.4383 | 1030.63 | 1.3459 | 1451.3 | 1.842
278.15 K, m1 = 0.4932 | 1034.36 | 1.3472 | 1454.6 | 1.874
278.15 K, m1 = 0.5541 | 1038.24 | 1.3489 | 1458.2 | 1.921
278.15 K, m1 = 0.6251 | 1042.79 | 1.351 | 1463.2 | 1.974
278.15 K, m1 = 0.711 | 1048.36 | 1.3533 | 1467.3 | 2.033
278.15 K, m1 = 0.7457 | 1050.45 | 1.3544 | 1469.1 | 2.05
288.15 K, m1 = 0.0496 | 1002.68 | 1.3348 | 1468.6 | 1.165
288.15 K, m1 = 0.1009 | 1006.33 | 1.3364 | 1471.2 | 1.184
288.15 K, m1 = 0.1408 | 1009.14 | 1.3378 | 1473.2 | 1.205
288.15 K, m1 = 0.1952 | 1012.94 | 1.339 | 1476.3 | 1.236
288.15 K, m1 = 0.2426 | 1016.2 | 1.34 | 1479 | 1.257
288.15 K, m1 = 0.2997 | 1020.14 | 1.3417 | 1481.7 | 1.282
288.15 K, m1 = 0.3402 | 1022.83 | 1.3428 | 1483.8 | 1.288
288.15 K, m1 = 0.3936 | 1026.48 | 1.3441 | 1487.6 | 1.325
288.15 K, m1 = 0.4492 | 1030.03 | 1.3456 | 1489.1 | 1.353
288.15 K, m1 = 0.5096 | 1034.09 | 1.3471 | 1492.7 | 1.386
288.15 K, m1 = 0.5782 | 1038.38 | 1.3489 | 1496.4 | 1.424
288.15 K, m1 = 0.6302 | 1041.56 | 1.3499 | 1499.1 | 1.444
288.15 K, m1 = 0.6984 | 1046.01 | 1.352 | 1501.6 | 1.475
288.15 K, m1 = 0.7426 | 1048.42 | 1.3529 | 1503.6 | 1.494
298.15 K, m1 = 0.0502 | 1000.6 | 1.3339 | 1498.9 | 0.9072
298.15 K, m1 = 0.1017 | 1004.18 | 1.3354 | 1501.5 | 0.9235
298.15 K, m1 = 0.1409 | 1006.8 | 1.3365 | 1503.4 | 0.935
298.15 K, m1 = 0.1988 | 1010.73 | 1.338 | 1505.2 | 0.9544
298.15 K, m1 = 0.2402 | 1013.54 | 1.3391 | 1506.7 | 0.9688
298.15 K, m1 = 0.2987 | 1017.33 | 1.3407 | 1508.9 | 0.9928
298.15 K, m1 = 0.3421 | 1020.12 | 1.3418 | 1510.9 | 1.007
298.15 K, m1 = 0.4046 | 1024.34 | 1.3431 | 1514.2 | 1.028
298.15 K, m1 = 0.4536 | 1027.31 | 1.3443 | 1518.2 | 1.046
298.15 K, m1 = 0.5119 | 1030.98 | 1.3461 | 1520 | 1.068
298.15 K, m1 = 0.5788 | 1035.16 | 1.3478 | 1521.8 | 1.093
298.15 K, m1 = 0.6259 | 1038.06 | 1.3497 | 1523.6 | 1.111
298.15 K, m1 = 0.6974 | 1042.37 | 1.3508 | 1525.5 | 1.141
298.15 K, m1 = 0.7486 | 1045.37 | 1.3518 | 1527.3 | 1.164
